Test results reported in ChEMBL document CHEMBL3992516, “Synthesis and SAR evaluation of novel thioridazine derivatives active against drug-resistant tuberculosis” (Eur J Med Chem, 2017).
Converted amounts (≈) assume the structure as drawn. The source made the active and inactive calls. The rule behind the calls is not given here.

How the values were obtained:
[1] = system: Mycolicibacterium smegmatis; experiment: Antimycobacterial activity against Mycobacterium smegmatis MC2 155 ATCC 700084 by microplate alamar blue assay; type: functional
[2] = system: Mycobacterium tuberculosis; experiment: Antimycobacterial activity against Mycobacterium tuberculosis MC2 7000 by microplate alamar blue assay; type: functional
[3] = system: Mycobacterium tuberculosis; experiment: Antimycobacterial activity against Mycobacterium tuberculosis H37Rv ATCC 27294 incubated for 7 days measured 24 hrs post incubation by resazurin microtiter assay; type: functional
[4] = system: Mycobacterium tuberculosis; experiment: Antimycobacterial activity against drug-succeptible Mycobacterium tuberculosis CF73 incubated for 7 days measured 24 hrs post incubation by resazurin microtiter assay; type: functional
[5] = system: Mycolicibacterium smegmatis; experiment: Inhibition of efflux pump in Mycobacterium smegmatis assessed as increase in accumulation of ethidium bromide at 0.25 times MIC measured every min for 60 mins by fluorimetric method
[6] = system: MRC5; experiment: Cytotoxicity against human MRC5 cells assessed as decrease in cell viability after 24 hrs by resazurin reduction assay; type: cell-based; details: MRC5, 24 h
[7] = system: J774; experiment: Cytotoxicity against mouse J774 cells assessed as decrease in cell viability after 24 hrs by resazurin reduction assay; type: cell-based; details: J774, 24 h
[8] = Selectivity index, ratio of IC50 for human MRC5 cells to MIC90 for drug-succeptible Mycobacterium tuberculosis CF73; type: toxicity; details: read-out: Selectivity Index

SMILES	MIC [1] [mg/L]	MIC [2] [mg/L]	MIC90 [3] [mg/L]	MIC90 [4] [mg/L]	inhibition [5]	IC50 [6] [mg/L]	IC50 [7] [mg/L]	selectivity ratio [8]
CSc1ccc2c(c1)N(CCC1CCCCN1C(C)C)c1ccccc1S2 (stereo unspecified)	> 64	> 64	–	–	–	–	–	–
CSc1ccc2c(c1)N(CCCN1CCSCC1)c1ccccc1S2	> 64	> 64	–	–	–	–	–	–
CO[C@H]1/C=C/O[C@@]2(C)Oc3c(C)c(O)c4c(O)c(c(/C=N/N5CCN(C)CC5)c(O)c4c3C2=O)NC(=O)/C(C)=C\C=C\[C@H](C)[C@H](O)[C@@H](C)[C@@H](O)[C@@H](C)[C@H](OC(C)=O)[C@@H]1C [RIFAMPIN]	–	0.25 (≈ 0.304 µM)	0.3 (≈ 0.365 µM)	8 (≈ 9.72 µM)	–	–	–	–
c1ccc2c(c1)Sc1ccccc1N2CCC1CCCCN1 (stereo unspecified)	> 64	> 64	> 64	47 (≈ 151 µM)	–	–	–	–
CN1CCN(CCCN2c3ccccc3Sc3ccccc32)CC1 [PERAZINE]	64 (≈ 189 µM)	27 (≈ 79.5 µM)	100 (≈ 295 µM)	> 100	Active	–	–	–
CSc1ccc2c(c1)N(CCC1CCCCN1)c1ccccc1S2 (stereo unspecified)	16 (≈ 44.9 µM)	8 (≈ 22.4 µM)	100 (≈ 280 µM)	> 100	–	–	–	–
Clc1ccc2c(c1)N(CCCN1CCSCC1)c1ccccc1S2	> 64	> 64	–	–	–	–	–	–
CSc1ccc2c(c1)N(CCCN1CCN(C34CC5CC(CC(C5)C3)C4)CC1)c1ccccc1S2	64 (≈ 127 µM)	64 (≈ 127 µM)	–	–	–	–	–	–
CN1CCN(CCCn2ccc3ccccc32)CC1	> 64	> 64	–	–	–	–	–	–
CSc1ccc2c(c1)N(CCC1CCCCN1Cc1ccccc1)c1ccccc1S2 (stereo unspecified)	16 (≈ 35.8 µM)	8 (≈ 17.9 µM)	> 100	37 (≈ 82.8 µM)	–	–	–	–
Clc1ccc2c(c1)N(CCC1CCCCN1)c1ccccc1S2 (stereo unspecified)	16 (≈ 46.4 µM)	4 (≈ 11.6 µM)	26 (≈ 75.4 µM)	11 (≈ 31.9 µM)	inactive	10 (≈ 29 µM)	10.7 (≈ 31 µM)	0.9
CSc1ccc2c(c1)N(C(=O)CN1CCN(C)CC1)c1ccccc1S2	> 64	> 64	–	–	–	–	–	–
CSc1ccc2c(c1)N(C(=O)CN1CCCCC1)c1ccccc1S2	–	–	> 100	> 100	–	–	–	–
Clc1ccc2c(c1)N(CCCN1CCN(c3ccccc3)CC1)c1ccccc1S2	> 64	> 64	–	–	–	–	–	–
CN1CCCCC1CCn1c2ccccc2c2ccccc21 (stereo unspecified)	> 64	64 (≈ 219 µM)	60 (≈ 205 µM)	39 (≈ 133 µM)	–	–	–	–
c1ccc2c(c1)c1ccccc1n2CCC1CCCCN1 (stereo unspecified)	> 64	> 64	–	–	–	–	–	–
CSc1ccc2c(c1)N(CCCN1CCN(C)CC1)c1ccccc1S2	32 (≈ 83 µM)	27 (≈ 70 µM)	69 (≈ 179 µM)	27 (≈ 70 µM)	Active	–	–	–
NNC(=O)c1ccncc1 [ISONIAZID]	4 (≈ 29.2 µM)	0.125 (≈ 0.911 µM)	0.03 (≈ 0.219 µM)	0.03 (≈ 0.219 µM)	–	–	–	–
CSc1ccc2c(c1)N(CCCN1CCN(c3ccccc3)CC1)c1ccccc1S2	> 64	> 64	–	–	–	–	–	–
CSc1ccc2c(c1)N(CCC1CCCCN1C)c1ccccc1S2 (stereo unspecified) [THIORIDAZINE]	16 (≈ 43.2 µM)	8 (≈ 21.6 µM)	10 (≈ 27 µM)	8 (≈ 21.6 µM)	–	8.2 (≈ 22.1 µM)	4.1 (≈ 11.1 µM)	1
CCCN1CCCCC1CCN1c2ccccc2Sc2ccc(SC)cc21 (stereo unspecified)	> 64	64 (≈ 161 µM)	45 (≈ 113 µM)	–	–	–	–	–
c1ccc2c(c1)ccn2CCC1CCCCN1 (stereo unspecified)	1.6 (≈ 7.01 µM)	–	2.9 (≈ 12.7 µM)	1 (≈ 4.38 µM)	inactive	15 (≈ 65.7 µM)	7.3 (≈ 32 µM)	15
c1ccc2c(c1)ncn2CCC1CCCCN1 (stereo unspecified)	> 64	> 64	100 (≈ 436 µM)	> 100	–	–	–	–
c1ccc(N2CCN(CCCN3c4ccccc4Sc4ccccc43)CC2)cc1	> 64	> 64	–	–	–	–	–	–
CSc1ccc2c(c1)N(CCCN1CCN(C3C4CC5CC(C4)CC3C5)CC1)c1ccccc1S2 (stereo unspecified)	4 (≈ 7.91 µM)	> 64	43 (≈ 85 µM)	98 (≈ 194 µM)	–	–	–	–
CN1CCCCC1CCn1cnc2ccccc21 (stereo unspecified)	> 64	> 64	–	–	–	–	–	–
CN1CCCCC1CCN1c2ccccc2Sc2ccc(Cl)cc21 (stereo unspecified)	16 (≈ 44.6 µM)	8 (≈ 22.3 µM)	19 (≈ 52.9 µM)	16 (≈ 44.6 µM)	–	13 (≈ 36.2 µM)	8.4 (≈ 23.4 µM)	0.8
CN1CCCCC1CCN1c2ccccc2Sc2ccccc21 (stereo unspecified)	32 (≈ 98.6 µM)	16 (≈ 49.3 µM)	> 64	47 (≈ 145 µM)	–	–	–	–
